Data from patent publication US6656957B1, “Pyridine derivatives” (Novartis AG, priority 1998, dated 2003).
Read-outs that look alike come from different tables or passages of the source.

Experiments:
[1] = test system: electroshock induced convulsion; test: electroshock induced convulsion model; assay type: in vivo; settings: ip, read-out: anticonvulsive activity ED50
Method: At doses of about 10 to 100 mg/kg i.p. or p.o. with pretreatment times of 15 min. to 8 hours, the agents of the invention show anticonvulsive activity in the electroshock induced convulsion model [cf. E. A. Swinyard, J. Pharm. Assoc. Scient. Ed. 38, 201 (1949) and J. Pharmacol. Exptl. Therap. 106, 319 (1952)].
(§1) Preferred compounds for the above mentioned indications include (3-{2-[2-trans-(3,5-dichlorophenyl)-vinyl]-6-methyl-pyridin-3-yloxy}-propyl)-dimethylamine (A), 2-methyl-6-styryl-pyridine (B), 2-(3-fluoro-phenylethynyl)-6-methyl-pyridine (C) and 2-(4-ethoxy-3-trifluoromethyl-phenylethynyl)-6-methyl-pyridine (D).

[2] = test system: FCA induced hyperalgesia; test: Freund complete adjuvant (FCA) induced hyperalgesia model; assay type: in vivo; settings: po; post-treatment time 3 hours; read-out: reversal of the hyperalgesia ED50
Method: At doses of about 4 to about 40 mg/kg p.o., the agents of the invention show reversal of Freund complete adjuvant (FCA) induced hyperalgesia [cf. J. Donnerer et al., Neuroscience 49, 693-698 (1992) and C. J. Woolf, Neuroscience 62, 327-331 (1994)].
as §1

Compound: Cc1ccc(OCCCN(C)C)c(/C=C/c2cc(Cl)cc(Cl)c2)n1 [A, (3-{2-[2-trans-(3,5-dichlorophenyl)-vinyl]-6-methyl-pyridin-3-yloxy}-propyl)-dimethylamine]
- ED50 ([1]; pretreatment time 4 hours): 30 mg/kg

Compound: Cc1cccc(C=Cc2ccccc2)n1 [B, 2-methyl-6-styryl-pyridine]
- ED50 ([1]; pretreatment time 15 min.): 35 mg/kg

Compound: Cc1cccc(C#Cc2cccc(F)c2)n1 [C, 2-(3-fluoro-phenylethynyl)-6-methyl-pyridine]
- melting point: 26 to 28 °C
- ED50 [2]: 4.2 mg/kg

Compound: CCOc1ccc(C#Cc2cccc(C)n2)cc1C(F)(F)F [D, 2-(4-ethoxy-3-trifluoromethyl-phenylethynyl)-6-methyl-pyridine]
- ED50 [2]: 19 mg/kg
